Laboratory results from PMC9519446, “Discovery of an Orally Active Benzoxaborole Prodrug Effective in the Treatment of Chagas Disease in Non-human Primates” (Nature microbiology, 2022).
Several values for one entry are separate records, joined by “and”; a condition that tells them apart may be missing. Equal entries are not always repeated.

Assay: NHP health screening: hematology (CBC)
Assay type: in vivo, rhesus macaques (Macaca mulatta)
Settings: treated macaques, individual animals
Procedure: Under light-anesthesia/sedation, peripheral blood samples were collected from each animal prior to treatment and at 7 time points following. Blood analysis (CBC and serum chemistry assays) and physical exams to evaluate the health of the study animals were performed on each animal prior to the beginning of the study and also at three time points during the treatment protocol (see Supplementary data).

Compound: Cc1c(C(=O)N[C@H](C(=O)OCC2CCOCC2)C(C)C)ccc2c1B(O)OC2 [AN15368]
- Hgb (mid-dosing bleed): 13.1 G/Dl and 14.2 G/Dl and 12.7 G/Dl and 14.6 G/Dl and 12.8 G/Dl and 13.9 G/Dl and 13.4 G/Dl and 13.5 G/Dl and 12.5 G/Dl and 12.6 G/Dl and 14 G/Dl and 13.6 G/Dl and 11.9 G/Dl and 12.9 G/Dl
- Lymp (mid-dosing bleed): 3.35 10^3/µL and 4.79 10^3/µL and 3.28 10^3/µL and 5.22 10^3/µL and 2.3 10^3/µL and 2.17 10^3/µL and 3.7 10^3/µL and 4.02 10^3/µL and 5.12 10^3/µL and 2.39 10^3/µL and 2.58 10^3/µL and 3.15 10^3/µL and 3.84 10^3/µL and 2.63 10^3/µL and 2.99 10^3/µL and 4.63 10^3/µL and 1.5 10^3/µL and 2.51 10^3/µL and 3.89 10^3/µL
- Mch (mid-dosing bleed): 23.8 Pgs and 22.9 Pgs and 24.1 Pgs and 24.7 Pgs and 24 Pgs and 22.6 Pgs and 24.4 Pgs and 23.9 Pgs and 22.5 Pgs and 23.1 Pgs and 23.3 Pgs and 23.7 Pgs and 22.8 Pgs and 23 Pgs and 22.7 Pgs and 23.6 Pgs
- Mchc (mid-dosing bleed): 31.8 G/Dl and 33.3 G/Dl and 31.2 G/Dl and 31.7 G/Dl and 32.2 G/Dl and 32 G/Dl and 32.8 G/Dl and 32.5 G/Dl and 30.8 G/Dl and 32.1 G/Dl and 31.6 G/Dl and 31.9 G/Dl and 33.2 G/Dl and 32.3 G/Dl
- Mcv (mid-dosing bleed): 74.9 fL and 68.9 fL and 77.2 fL and 78 fL and 74.5 fL and 70.8 fL and 74.6 fL and 73.8 fL and 72.9 fL and 76.6 fL and 72.2 fL and 76.4 fL and 74.7 fL and 74.4 fL and 71.4 fL and 72.1 fL and 71.2 fL
- Mono (mid-dosing bleed): 0.25 10^3/µL and 0.22 10^3/µL and 0.19 10^3/µL and 0.43 10^3/µL and 0.26 10^3/µL and 0.21 10^3/µL and 0.16 10^3/µL and 0.58 10^3/µL and 0.3 10^3/µL and 0.38 10^3/µL and 0.13 10^3/µL and 0.32 10^3/µL and 0.28 10^3/µL and 0.08 10^3/µL and 0.17 10^3/µL and 0.5 10^3/µL
- Mpv (mid-dosing bleed): 6.5 fL and 7.2 fL and 7.4 fL and 9.2 fL and 9.1 fL and 6.8 fL and 6.6 fL and 6.7 fL and 7.7 fL and 8.1 fL and 7.9 fL and 7.1 fL and 7.5 fL and 8.8 fL and 8.5 fL
- Neut (mid-dosing bleed): 1.09 10^3/µL and 1.04 10^3/µL and 2.08 10^3/µL and 1.9 10^3/µL and 3.38 10^3/µL and 1.51 10^3/µL and 1.78 10^3/µL and 2.28 10^3/µL and 1.12 10^3/µL and 2.03 10^3/µL and 1.69 10^3/µL and 3.43 10^3/µL and 3.82 10^3/µL and 1.6 10^3/µL and 3.07 10^3/µL and 1.17 10^3/µL and 1.61 10^3/µL and 1.53 10^3/µL and 0.96 10^3/µL
- Plt (mid-dosing bleed): 354 10^3/µL and 311 10^3/µL and 210 10^3/µL and 266 10^3/µL and 220 10^3/µL and 317 10^3/µL and 438 10^3/µL and 380 10^3/µL and 279 10^3/µL and 251 10^3/µL and 373 10^3/µL and 367 10^3/µL and 434 10^3/µL and 280 10^3/µL and 260 10^3/µL and 432 10^3/µL and 291 10^3/µL and 288 10^3/µL and 306 10^3/µL
- Rbc (mid-dosing bleed): 5.5 10^6/µL and 6.2 10^6/µL and 5.27 10^6/µL and 5.91 10^6/µL and 5.33 10^6/µL and 6.13 10^6/µL and 5.36 10^6/µL and 5.46 10^6/µL and 5.69 10^6/µL and 5.47 10^6/µL and 5.82 10^6/µL and 5.18 10^6/µL and 5.8 10^6/µL and 5.32 10^6/µL and 6.12 10^6/µL and 5.24 10^6/µL
- Rdw (mid-dosing bleed): 12.8% and 11.9% and 12.5% and 12.1% and 12.7% and 12% and 13.5% and 12.9% and 12.4% and 11.3% and 12.3%
- Wbc (mid-dosing bleed): 4.78 10^3/µL and 6.15 10^3/µL and 5.63 10^3/µL and 7.65 10^3/µL and 6 10^3/µL and 3.99 10^3/µL and 5.7 10^3/µL and 7.05 10^3/µL and 6.59 10^3/µL and 4.73 10^3/µL and 4.52 10^3/µL and 7.07 10^3/µL and 8.23 10^3/µL and 4.45 10^3/µL and 6.3 10^3/µL and 3.22 10^3/µL and 4.27 10^3/µL and 5.62 10^3/µL
- Baso (post-dosing bleed): 0.01 10^3/µL and 0.02 10^3/µL and 0 10^3/µL and 0.04 10^3/µL and 0.03 10^3/µL
- Eos (post-dosing bleed): 0.05 10^3/µL and 0.15 10^3/µL and 0.06 10^3/µL and 0.02 10^3/µL and 0.09 10^3/µL and 0.04 10^3/µL and 0.13 10^3/µL and 0.03 10^3/µL and 0.23 10^3/µL and 0.2 10^3/µL and 0.18 10^3/µL
- Hct (post-dosing bleed): 38.2% and 41.9% and 37.7% and 43% and 39.5% and 42.7% and 41% and 42.1% and 39.9% and 41.8% and 40.8% and 39.1% and 40.4% and 43.7% and 37.1% and 39.6% and 41.1%
- Hgb (post-dosing bleed): 12.2 G/Dl and 14.1 G/Dl and 12 G/Dl and 13.9 G/Dl and 12.7 G/Dl and 13.1 G/Dl and 13.5 G/Dl and 12.6 G/Dl and 13.4 G/Dl and 12.1 G/Dl and 14 G/Dl and 13 G/Dl and 11.7 G/Dl and 12.9 G/Dl
- Lymp (post-dosing bleed): 2.22 10^3/µL and 5.87 10^3/µL and 2.42 10^3/µL and 3.66 10^3/µL and 1.59 10^3/µL and 1.61 10^3/µL and 1.2 10^3/µL and 2.96 10^3/µL and 2.61 10^3/µL and 1.64 10^3/µL and 1.73 10^3/µL and 2.56 10^3/µL and 2.26 10^3/µL and 3.27 10^3/µL and 1.82 10^3/µL and 3.4 10^3/µL and 2.49 10^3/µL and 4.82 10^3/µL
- Mch (post-dosing bleed): 24 Pgs and 23.3 Pgs and 24.2 Pgs and 24.8 Pgs and 24.1 Pgs and 22.8 Pgs and 23.6 Pgs and 22.7 Pgs and 25.1 Pgs and 23.5 Pgs and 24.3 Pgs and 23 Pgs and 23.2 Pgs and 23.4 Pgs
- Mchc (post-dosing bleed): 31.9 G/Dl and 33.7 G/Dl and 31.8 G/Dl and 32.3 G/Dl and 32.2 G/Dl and 32.6 G/Dl and 32 G/Dl and 32.1 G/Dl and 31.6 G/Dl and 33.3 G/Dl and 32.8 G/Dl and 30.9 G/Dl and 32.4 G/Dl and 31.5 G/Dl and 31.4 G/Dl
- Mcv (post-dosing bleed): 74.9 fL and 69.4 fL and 76 fL and 76.5 fL and 75.1 fL and 70 fL and 75.4 fL and 73.3 fL and 71.9 fL and 75.6 fL and 71 fL and 76.1 fL and 75 fL and 71.5 fL and 72 fL and 73.8 fL and 71.1 fL
- Mono (post-dosing bleed): 0.18 10^3/µL and 0.32 10^3/µL and 0.21 10^3/µL and 0.33 10^3/µL and 0.22 10^3/µL and 0.38 10^3/µL and 0.54 10^3/µL and 0.11 10^3/µL and 0.26 10^3/µL and 0.1 10^3/µL and 0.28 10^3/µL and 0.15 10^3/µL and 0.34 10^3/µL
- Mpv (post-dosing bleed): 6.6 fL and 7.5 fL and 7.4 fL and 10.2 fL and 8.7 fL and 6.9 fL and 7.1 fL and 7 fL and 6.7 fL and 8.3 fL and 8 fL and 6.4 fL and 8.4 fL and 7.2 fL and 6.8 fL
- Neut (post-dosing bleed): 3.01 10^3/µL and 0.97 10^3/µL and 0.98 10^3/µL and 1.76 10^3/µL and 2.92 10^3/µL and 2.28 10^3/µL and 2.06 10^3/µL and 3.85 10^3/µL and 1.41 10^3/µL and 3.58 10^3/µL and 1.8 10^3/µL and 3.13 10^3/µL and 5.36 10^3/µL and 1.54 10^3/µL and 2.18 10^3/µL and 3.21 10^3/µL and 2.83 10^3/µL and 2.26 10^3/µL and 1.29 10^3/µL
- Plt (post-dosing bleed): 418 10^3/µL and 319 10^3/µL and 265 10^3/µL and 238 10^3/µL and 242 10^3/µL and 283 10^3/µL and 400 10^3/µL and 311 10^3/µL and 246 10^3/µL and 364 10^3/µL and 390 10^3/µL and 478 10^3/µL and 296 10^3/µL and 291 10^3/µL and 431 10^3/µL and 302 10^3/µL and 342 10^3/µL and 357 10^3/µL
- Rbc (post-dosing bleed): 5.1 10^6/µL and 6.04 10^6/µL and 4.96 10^6/µL and 5.62 10^6/µL and 5.26 10^6/µL and 6.1 10^6/µL and 5.44 10^6/µL and 5.74 10^6/µL and 5.55 10^6/µL and 5.53 10^6/µL and 5.75 10^6/µL and 5.14 10^6/µL and 5.39 10^6/µL and 6.11 10^6/µL and 5.61 10^6/µL and 5.03 10^6/µL and 5.57 10^6/µL and 5.49 10^6/µL
- Rdw (post-dosing bleed): 12.7% and 12.2% and 13% and 12% and 13.5% and 11.7% and 12.6% and 12.5% and 13.3% and 11.9% and 12.9% and 12.4% and 12.3% and 11% and 12.8%
- Wbc (post-dosing bleed): 5.48 10^3/µL and 7.33 10^3/µL and 3.67 10^3/µL and 5.82 10^3/µL and 4.76 10^3/µL and 4.2 10^3/µL and 3.7 10^3/µL and 7.52 10^3/µL and 4.16 10^3/µL and 5.51 10^3/µL and 3.69 10^3/µL and 6.15 10^3/µL and 8.14 10^3/µL and 5.08 10^3/µL and 4.41 10^3/µL and 7.03 10^3/µL and 5.73 10^3/µL and 4.11 10^3/µL and 6.68 10^3/µL
